Measurements taken from US20230146455A1, “TREATMENT OF INFLAMMATORY DISEASES WITH PEPTIDES AND PHARMACEUTICAL COMPOSITIONS” (Yuyu Pharma, Inc., priority 2020, published 2023).
Where “and” joins values, the source holds several entries; their conditions need not be identical. Equal entries are not always repeated. Where a SMILES comes first, the peptide text is derived from it. [ ]: non-standard residue; d: D form. Hyp = O=C(O)[C@@H]1C[C@@H](O)CN1

Test system: CCL4/MIP-1 beta
Assay: Example 9 Luminex, LPS hPBMCs: CCL4/MIP-1 beta
Type: cell-based, human
Conditions: PBMC + LPS(5 ug/ml); for MFI (Bead name: CCL4/MIP-1 beta): dilution 10
Description: Treatment Human PBMCs were pretreated with YY-101, YDE-011 and YDE-043 or reference compound; Xiidra® at various concentration (ranging from 1 nM to 100 uM) for 2 h before stimulation. An equal volume of 0.5% DMSO was used as a vehicle control. Then, the cells were treated with LPS at 5 ug/ml. The supernatants from treated cells were harvested at 24 h and placed in a 96 well for Luminex cytokine & chemokine profiling using a Luminex 200 multiplex assay (Luminex; R&D system, USA).
The main study arm with triplicate wells per group in a 24-well plate: • 1. Blank • 2. PBMC: 0.5% DMSO • 3. PBMC+LPS (5 ug/ml) • 4. PBMC+YY-101 100 uM • 5. PBMC+YY-101 10 uM • 6. PBMC+YY-101 1 uM • 7. PBMC+YY-101 0.1 uM • 8. PBMC+YY-101 0.01 uM • 9. PBMC+LPS (5 ug/ml)+Xiidra®100 uM • 10. PBMC+LPS (5 ug/ml)+Xiidra® 10 uM • 11. PBMC+LPS (5 ug/ml)+Xiidra® 1 uM • 12. PBMC+LPS (5 ug/ml)+Xiidra®0.1 uM • 13. PBMC+LPS (5 ug/ml)+Xiidra®0.01 uM • 14. PBMC+LPS (5 ug/ml)+Xiidra®0.001 uM • 15. PBMC+LPS (5 ug/ml)+YY-101 100 uM • 16. PBMC+LPS (5 ug/ml)+YY-101 10 uM • 17. PBMC+LPS (5 ug/ml)+YY-101 1 uM • 18. PBMC+LPS (5 ug/ml)+YY-101 0.1 uM • 19. PBMC+LPS (5 ug/ml)+YY-101 0.01 uM • 20. PBMC+LPS (5 ug/ml)+YY-101 0.001 uM • 21. PBMC+LPS (5 ug/ml)+YDE-011 100 uM • 22. PBMC+LPS (5 ug/ml)+YDE-011 10 uM • 23. PBMC+LPS (5 ug/ml)+YDE-011 1 uM • 24. PBMC+LPS (5 ug/ml)+YDE-011 0.1 uM • 25. PBMC+LPS (5 ug/ml)+YDE-011 0.01 uM • 26. PBMC+LPS (5 ug/ml)+YDE-011 0.001 uM • 27. PBMC+LPS (5 ug/ml)+YDE-043 100 uM • 28. PBMC+LPS (5 ug/ml)+YDE-043 10 uM • 29. PBMC+LPS (5 ug/ml)+YDE-043 1 uM • 30. PBMC+LPS (5 ug/ml)+YDE-043 0.1 uM • 31. PBMC+LPS (5 ug/ml)+YDE-043 0.01 uM • 32. PBMC+LPS (5 ug/ml)+YDE-043 0.001 uM
Multiplex assay was used to measure 30 cytokines and chemokines. The 1:2, 1:10 and 1:200 diluted cell supernatant and serial dilution of the standard were dispensed into a 96 well plate at 50 ul/well. Then, the pre-mixed cocktail of antibody-coated magnetic beads was dispensed at 50 ul/well and incubated at room temperature for 2 h in a horizontal orbital microplate shaker at 800±500 rpm. The beads were washed using a magnetic device to prevent loss. The biotin-antibody was dispensed in 50 ul of each well and incubated at room temperature for 1 h in a shaker at 800±500 rpm. After washing, streptavidin-PE was added at 50 ul/well and incubated at room temperature for 30 min in a shaker under the same conditions. Finally, after washing, wash buffer (100 ul/well) was added to the plate and incubated in a shaker for 2 min. The Luminex™ 200 setting were set according to the manufacturer's protocol. The data was calculated with a standard five-parameter logistic nonlinear regression analysis of the data (xPonent software 4.2, USA). The levels of cytokine/chemokine are normalized to the live cell counts (1×10^5 cells/mL) and presented as concentrations per mL (pg/mL or ng/mL).

[1] = test article 0.001 uM, single replicates
[2] = test article 0.01 uM, single replicates
[3] = test article 0.1 uM, single replicates
[4] = test article 1 uM, single replicates
[5] = test article 10 uM, single replicates
[6] = test article 100 uM, single replicates

SMILES	Concentration (CCL4/MIP-1 beta) (test article 0.001 uM, Mean)	conc/live cell (CCL4/MIP-1 beta) (test article 0.001 uM, Mean)	MFI (Bead name: CCL4/MIP-1 beta) (test article 0.001 uM, Mean)	MFI (Bead name: CCL4/MIP-1 beta) [1]	Concentration (CCL4/MIP-1 beta) [1]	conc/live cell (CCL4/MIP-1 beta) [1]	Concentration (CCL4/MIP-1 beta) (test article 0.01 uM, Mean)	conc/live cell (CCL4/MIP-1 beta) (test article 0.01 uM, Mean)	MFI (Bead name: CCL4/MIP-1 beta) (test article 0.01 uM, Mean)	MFI (Bead name: CCL4/MIP-1 beta) [2]	Concentration (CCL4/MIP-1 beta) [2]	conc/live cell (CCL4/MIP-1 beta) [2]	Concentration (CCL4/MIP-1 beta) (test article 0.1 uM, Mean)	conc/live cell (CCL4/MIP-1 beta) (test article 0.1 uM, Mean)	MFI (Bead name: CCL4/MIP-1 beta) (test article 0.1 uM, Mean)	MFI (Bead name: CCL4/MIP-1 beta) [3]	Concentration (CCL4/MIP-1 beta) [3]	conc/live cell (CCL4/MIP-1 beta) [3]	Concentration (CCL4/MIP-1 beta) (test article 1 uM, Mean)	conc/live cell (CCL4/MIP-1 beta) (test article 1 uM, Mean)	other results
CC(C)C[C@H](NC(=O)[C@H](CCC(N)=O)NC(=O)CNC(=O)[C@@H]1C[C@@H](O)CN1)C(=O)NCC(=O)O [YDE-043] (H-[Hyp]GQLG-OH; N-terminus and C-terminus assumed)	7716.4 pg/mL	1568.7 pg/10^5	177.7	165.5 and 185.0 and 182.5	7441.6 pg/mL and 7881.5 pg/mL and 7826.1 pg/mL	1691.3 pg/10^5 and 1313.6 pg/10^5 and 1701.3 pg/10^5	7755.3 pg/mL	1483.8 pg/10^5	179.3	178.0 and 177.0 and 183.0	7725.6 pg/mL and 7703.2 pg/mL and 7837.2 pg/mL	1716.8 pg/10^5 and 1167.1 pg/10^5 and 1567.4 pg/10^5	7358.9 pg/mL	1365.2 pg/10^5	162.0	153.5 and 159.5 and 173.0	7161.3 pg/mL and 7302.4 pg/mL and 7612.9 pg/mL	1432.3 pg/10^5 and 1304.0 pg/10^5 and 1359.5 pg/10^5	7359.3 pg/mL	1391.3 pg/10^5	MFI (Bead name: CCL4/MIP-1 beta) (test article 1 uM, Mean): 162.3; MFI (Bead name: CCL4/MIP-1 beta) [4]: 175.0 (2×) and 137.0; Concentration (CCL4/MIP-1 beta) [4]: 7658.2 pg/ml (2×) and 6761.7 pg/ml; conc/live cell (CCL4/MIP-1 beta) [4]: 1320.4 pg/10^5 and 1408.7 pg/10^5 and 1444.9 pg/10^5; Concentration (CCL4/MIP-1 beta) (test article 10 uM, Mean): 7298.5 pg/mL; conc/live cell (CCL4/MIP-1 beta) (test article 10 uM, Mean): 1352.7 pg/10^5; MFI (Bead name: CCL4/MIP-1 beta) (test article 10 uM, Mean): 159.3; MFI (Bead name: CCL4/MIP-1 beta) [5]: 159.0 and 158.0 and 161.0; Concentration (CCL4/MIP-1 beta) [5]: 7290.8 pg/mL and 7267.3 pg/mL and 7337.4 pg/mL; conc/live cell (CCL4/MIP-1 beta) [5]: 1402.1 pg/10^5 and 1345.8 pg/10^5 and 1310.3 pg/10^5; Concentration (CCL4/MIP-1 beta) (test article 100 uM, Mean): 6094.9 pg/mL; conc/live cell (CCL4/MIP-1 beta) (test article 100 uM, Mean): 968.2 pg/10^5; MFI (Bead name: CCL4/MIP-1 beta) (test article 100 uM, Mean): 111.3; MFI (Bead name: CCL4/MIP-1 beta) [6]: 118.5 and 104.0; Concentration (CCL4/MIP-1 beta) [6]: 6290.4 pg/mL and 5899.5 pg/mL; conc/live cell (CCL4/MIP-1 beta) [6]: 1014.6 pg/10^5 and 921.8 pg/10^5
CC(C)C[C@H](NC(=O)CNC(=O)[C@H](CC(C)C)NC(=O)[C@H](CCC(N)=O)NC(=O)CNC(=O)[C@@H]1C[C@@H](O)CN1)C(=O)N[C@@H](C)C(=O)NCC(=O)N1CCC[C@H]1C(=O)N[C@@H](CCCCN)C(=O)O [YDE-011] (H-[Hyp]GQLGLAGPK-OH)	7251.7 pg/mL	1370.9 pg/10^5	157.3	158.0 (2×) and 156.0	7267.3 pg/ml (2×) and 7220.3 pg/ml	1615.0 pg/10^5 and 1244.9 pg/10^5 and 1253.0 pg/10^5	7395.1 pg/mL	1270.9 pg/10^5	163.5	164.0 and 159.0 and 167.5	7407.0 pg/mL and 7290.8 pg/mL and 7487.6 pg/mL	1194.7 pg/10^5 and 1429.6 pg/10^5 and 1188.5 pg/10^5	7029.3 pg/mL	1234.5 pg/10^5	148.0	152.0 and 151.0 and 141.0	7125.7 pg/mL and 7101.9 pg/mL and 6860.2 pg/mL	1079.6 pg/10^5 and 1420.4 pg/10^5 and 1203.6 pg/10^5	7165.0 pg/mL	1429.9 pg/10^5	MFI (Bead name: CCL4/MIP-1 beta) (test article 1 uM, Mean): 153.7; MFI (Bead name: CCL4/MIP-1 beta) [4]: 151.0 and 152.0 and 158.0; Concentration (CCL4/MIP-1 beta) [4]: 7101.9 pg/mL and 7125.7 pg/mL and 7267.3 pg/mL; conc/live cell (CCL4/MIP-1 beta) [4]: 1291.2 pg/10^5 and 1484.5 pg/10^5 and 1514.0 pg/10^5; Concentration (CCL4/MIP-1 beta) (test article 10 uM, Mean): 7321.1 pg/mL; conc/live cell (CCL4/MIP-1 beta) (test article 10 uM, Mean): 1392.8 pg/10^5; MFI (Bead name: CCL4/MIP-1 beta) (test article 10 uM, Mean): 160.3; MFI (Bead name: CCL4/MIP-1 beta) [5]: 166.0 and 153.5 and 161.5; Concentration (CCL4/MIP-1 beta) [5]: 7453.1 pg/mL and 7161.3 pg/mL and 7349.0 pg/mL; conc/live cell (CCL4/MIP-1 beta) [5]: 1380.2 pg/10^5 and 1234.7 pg/10^5 and 1563.6 pg/10^5; Concentration (CCL4/MIP-1 beta) (test article 100 uM, Mean): 6290.1 pg/mL; conc/live cell (CCL4/MIP-1 beta) (test article 100 uM, Mean): 1036.8 pg/10^5; MFI (Bead name: CCL4/MIP-1 beta) (test article 100 uM, Mean): 118.5; MFI (Bead name: CCL4/MIP-1 beta) [6]: 119.0 and 121.5 and 115.0; Concentration (CCL4/MIP-1 beta) [6]: 6303.5 pg/mL and 6368.7 pg/mL and 6197.9 pg/mL; conc/live cell (CCL4/MIP-1 beta) [6]: 1033.4 pg/10^5 and 1044.1 pg/10^5 and 1033.0 pg/10^5
